Series [1] has as its target T1, pancreatic bovine trypsin (Bos taurus, UniProt P00760).
T1 construct: purchased Sigma Chemical, Co. (St. Louis, MO, USA)
T1 sequence (P00760 24-246): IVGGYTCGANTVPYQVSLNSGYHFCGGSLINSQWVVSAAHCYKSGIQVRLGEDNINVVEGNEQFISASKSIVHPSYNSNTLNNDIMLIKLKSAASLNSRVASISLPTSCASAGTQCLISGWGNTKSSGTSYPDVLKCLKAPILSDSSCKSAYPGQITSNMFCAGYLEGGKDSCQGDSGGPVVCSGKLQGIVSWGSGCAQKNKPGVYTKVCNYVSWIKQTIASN
Nature of the series: Inhibition of trypsin induced proteolysis in vitro. Format: biochemical. Conditions: for inhibition at 100 µM: read-out: % Trypsin Inh.; for IC50: read-out: IC50 μM Trypsin Inh.; for inhibition at 100 µM / % Trypsin Inh.: % inhibition at 100 μM. The source says: All chemicals, solvents, chemical and biochemical reagents were of analytical grade and purchased from commercial sources (Merck, Merck KGaA, Darmstadt, Germany, Fluka Sigma-Aldrich Laborchemikalien GmbH, Hannover, Germany, Alfa Aesar, Karlsruhe, Germany and Sigma, St. Louis, MO, USA). Soybean lipoxygenase, pancreatic bovine trypsin, sodium linoleate, free radical DPPH and 2,2-azinobis-2-methyl-propanimidamine HCl (AAPH) were obtained from Sigma Chemical, Co. (St. Louis, MO, USA), carrageenin, type K, was commercially available. All starting materials were obtained from commercial sources and used without further purification.
The test was carried out according to a modified Kunitz method. Bovine albumin was used as substrate for trypsin. The reaction mixture consisted of 0.075 mg/mL trypsin (200 μL) and 780 μL of phosphate buffer pH 7.6 (including the tested compounds (20 μL in DMSO, final concentration 100 μM) preincubated at 37 °C for 20 min and then 1 mL of albumin (stock solution 6 g/100 mL in phosphate buffer 0.1 M, pH 7.6) was added and incubated at 37 °C for 30 min. After the incubation 1 mL of 5% trichloroacetic acid was added to the incubated solution to stop the enzyme’s reaction and allowed to set at room temperature for 1 h. Then the solution was filtered by filter paper and the absorption of the filtered solution was measured at 280 nm. Salicylic acid was used as a reference compound (Table 1).

Series [2] is described as follows: Inhibition of linoleic acid lipid peroxidation (AAPH). Conditions: % inhibition at 100 μM; pH 7.4, 37 °C. The procedure: Production of conjugated diene hydroperoxide by oxidation of sodium linoleate in an aqueous dispersion is monitored at 234 nm. AAPH is used as a free radical initiator [12, 24]. Ten microlitres of the 16 mM sodium linoleate solution was added to the UV cuvette containing 930 μL of 0.05 M phosphate buffer, pH 7.4 prethermostated at 37 °C. The oxidation reaction was initiated at 37 °C under air by the addition of 40 mM AAPH solution (50 μL). Ten μL of the tested compounds were added in the mixture. Lipid oxidation was measured in the presence of the same level of DMSO. The rate of oxidation at 37 °C was monitored by recording the increase in absorption at 234 nm caused by conjugated diene hydroperoxides. The results were compared to the appropriate standard inhibitor trolox (63%) (Table 1).

Series [3] concerns acetic acid-induced writhing. Nature of the series: Antinociceptive screen (writhing test). In kind it is in vivo, Wistar rats. Conditions: i.p. 30 min before 0.6% acetic acid, writhes counted over 30 min; for inhibition in vivo at 0.01 mmol/0.1 kg: Rattus norvegicus, ip, 0.5 h, read-out: % ANA (in vivo analgesic-antinociceptive activity). The procedure:
Anti-inflammatory tests were conducted on Fisher-344 inbred rats of ca. 200 g body weight whereas antinociception and motor and sensory functions after sciatic nerve crash were performed on Wistar rats. Both sexes were used. Females pregnant were excluded. Each group was composed of 6 animals. The animals, which have been bred in our laboratory, were housed under standard conditions and received a diet of commercial food pellets and water ad libitum during the maintenance. Our studies were carried out in accordance with recognised guidelines on animal experimentation.
[…] Controls received the liquid vehicle only. All the in vivo experiments were repeated at least in triplicate and were subjected to statistic analysis using the student’s t-test.
The writhing reflex was used. The test compounds were administered i.p. 30 min prior to the i.p. administration of 1 mL/100 g body weight of 0.6% acetic acid. […] After 5 min, the number of stretches characterized by repeated contractions of the abdominal musculature accompanied by extension of the hind limbs was counted every 5 min for the next 30 min. […] The % antinociceptive activity (a:a) was calculated as: % a:a = (n − n'/n) × 100 (a: a analgesic activity, n average number of writhes of control group, n' average number in the test group).
On the technique in general: In writhing tests, fewer writhes than in controls are read as antinociception.

For a further series, the target named is T2, soybean lipoxygenase (Glycine max, UniProt P08170).
T2 construct: purchased Sigma Chemical, Co. (St. Louis, MO, USA)
T2 sequence (P08170 1-839): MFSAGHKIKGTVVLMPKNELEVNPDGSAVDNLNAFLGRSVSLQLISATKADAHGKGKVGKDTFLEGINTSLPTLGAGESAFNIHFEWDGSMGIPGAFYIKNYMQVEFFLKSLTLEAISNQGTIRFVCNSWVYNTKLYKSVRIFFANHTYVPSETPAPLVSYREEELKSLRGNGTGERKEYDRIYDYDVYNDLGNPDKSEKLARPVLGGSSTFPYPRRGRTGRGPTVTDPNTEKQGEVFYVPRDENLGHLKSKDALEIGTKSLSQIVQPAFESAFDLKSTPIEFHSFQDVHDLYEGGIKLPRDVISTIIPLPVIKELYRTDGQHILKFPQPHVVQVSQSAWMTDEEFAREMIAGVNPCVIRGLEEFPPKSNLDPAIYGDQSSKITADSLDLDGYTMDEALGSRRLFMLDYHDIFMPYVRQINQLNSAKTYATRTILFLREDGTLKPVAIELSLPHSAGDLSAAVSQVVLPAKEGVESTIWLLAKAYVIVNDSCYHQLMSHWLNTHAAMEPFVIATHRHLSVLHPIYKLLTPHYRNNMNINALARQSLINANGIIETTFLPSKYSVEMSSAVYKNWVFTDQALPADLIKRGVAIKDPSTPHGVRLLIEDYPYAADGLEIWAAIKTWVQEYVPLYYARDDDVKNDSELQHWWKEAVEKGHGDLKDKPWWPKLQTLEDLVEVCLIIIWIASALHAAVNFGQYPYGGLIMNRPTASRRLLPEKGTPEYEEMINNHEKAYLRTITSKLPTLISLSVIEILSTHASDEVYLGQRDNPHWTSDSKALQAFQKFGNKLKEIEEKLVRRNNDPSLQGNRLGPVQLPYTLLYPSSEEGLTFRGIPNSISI
Put plainly: Soybean lipoxygenase inhibition in vitro. In kind it is biochemical. Conditions: for inhibition at 100 µM: read-out: % LOX Inh. The procedure:
DMSO solution of the tested compound was incubated with sodium linoleate (0.1 mM) and 0.2 mL of soybean lipoxygenase solution (1/9 × 10^−4 w/v in saline) in buffer pH 9 (tris) and at room temperature. […] The results are given in Table 1 expressed as IC50 values or % inhibition at 100 μM.

Series [4] can be described thus: Lipophilicity as RM values by RP-TLC. In kind it is physicochemical. Conditions: methanol/water 70/30, 24 °C, average of at least five measurements. The source says: Since lipophilicity is a significant physicochemical property determining distribution, bioavailability, metabolic activity and elimination, we tried to determine experimentally the lipophilicity of the new substances by a RPTLC method as RM values (Table 1) and to compare them with the corresponding theoretically calculated clog p values in n-octanol-buffer. This is considered to be a reliable, fast and convenient method for expressing lipophilicity. Lipophilicity (Table 2), was theoretically calculated as Clog p values in n-octanol-buffer by the CLOGP Programme of Biobyte Corp..
Reversed phase TLC (RP-TLC) was performed on silica gel plates impregnated with 5% (v/v) liquid paraffin in light petroleum ether. The mobile phase was a methanol/water mixture (70/30, v/v). The plates were developed in closed chromatography tanks saturated with the mobile phase at 24 °C. Spots were detected under UV light. RM values were determined from the corresponding Rf values (from five individual measurements) using the equation RM = log [(1/Rf) − 1] (Table 1).

Setting [5] is: sodium linoleate 0.1 mM, tris buffer pH 9, room temperature, read-out: IC50 μM LOX Inh.
[6] abbreviates: sodium linoleate 0.1 mM, tris buffer pH 9, room temperature.
Where [7] appears, read: bovine albumin substrate, pH 7.6, 37 °C.

Like-named read-outs stand apart in the source and are kept apart here. Marks after values point to notes of the source that are not given here.

Turning to `CCOC(=O)c1ccc(N)cc1` [Benzocaine, reference compound], the inhibition at 100 µM in series [1] is 28%. For the same compound, in series [2], the “AAPH % (% inhibition of lipid peroxidation)” value is recorded as 25%.

As a reminder, the IC50 is the point on the concentration scale where inhibition reaches its midpoint. For `CC(=O)Nc1ccc(OC(=O)/C=C/c2ccccc2)cc1` [Compound 1a, (E) 4-Acetamidophenyl cinnamate], the inhibition in vivo at 0.01 mmol/0.1 kg in series [3] was determined as 77.3%. In addition, the half-maximal inhibitory concentration (IC50) on soybean lipoxygenase (setting [5]) came to 10 µM. For the same compound, in series [4], the “RM (±S.D.)” value is recorded as −0.725 ± 0.009. Moreover, the inhibition at 100 µM in series [1] amounted to 34%. The “AAPH % (% inhibition of lipid peroxidation)” value in series [2] is 95%.

Turning to `O=C(/C=C/c1cccc(Oc2ccccc2)c1)Oc1ccc2ccc(=O)oc2c1` [Compound 2c, (E)-2-Oxo-2H-chromen-7-yl 3-(3-phenoxyphenyl)acrylate], the inhibition in vivo at 0.01 mmol/0.1 kg in series [3] stood at 70.4%. Besides, the inhibition at 100 µM on soybean lipoxygenase worked out at 20%. In addition, the “IC50 μM LOX Inh.” value at soybean lipoxygenase (setting [6]) was “low or no activity”. Further, the “RM (±S.D.)” value in series [4] turned out to be 0.444 ±0.008. Moreover, the half-inhibitory concentration (IC50) in series [1] (setting [7]) was determined as 10 µM. For the same compound, the “AAPH % (% inhibition of lipid peroxidation)” value in series [2] is listed as 93%.

Consider `CC(=O)Nc1cccc(OC(=O)/C=C/c2cccc(Oc3ccccc3)c2)c1` [Compound 2e, 3-Acetamidophenyl (E)-3-(3-phenoxyphenyl)acrylate], for which the “% ANA (in vivo analgesic-antinociceptive activity)” value in series [3] (0.01 mmol/0.1 kg) is listed as 98.1 ** %. Further, the inhibition in vivo at 0.01 mmol/0.1 kg in series [3] came out at 98.1%. The IC50 at soybean lipoxygenase (setting [5]) worked out at 0.34 µM. Moreover, the “RM (±S.D.)” value in series [4] is reported as 0.407 ± 0.015. Moreover, the “AAPH % (% inhibition of lipid peroxidation)” value in series [2] amounted to 60%.

In the case of `O=C(/C=C/c1cccc(Oc2ccccc2)c1)Nc1ccc(O)cc1` [Compound 2f, (E)-N-(4-Hydroxyphenyl)-3-(3-phenoxyphenyl)acrylamide], the “IC50 μM LOX Inh.” value against soybean lipoxygenase (setting [6]) was “low or no activity”. Besides, the “RM (±S.D.)” value in series [4] is recorded as −0.116 ± 0.003. Also, the concentration for half-maximal inhibition (IC50) in series [1] (setting [7]) was 26 µM. For the same compound, in series [2], the “AAPH % (% inhibition of lipid peroxidation)” value is reported as 100%.

`O=C(/C=C/c1cccc(Oc2ccccc2)c1)Nc1cccc(OC(=O)/C=C/c2cccc(Oc3ccccc3)c2)c1` [Compound 2g]: the IC50 is 72 µM against soybean lipoxygenase and 43.6 µM in series [1] (setting [7]). The “RM (±S.D.)” value in series [4] was 1.092 ± 0.044. The “AAPH % (% inhibition of lipid peroxidation)” value in series [2] came to 60%.

Consider `CCOC(=O)c1ccc(NC(=O)/C=C/c2cccc(Oc3ccccc3)c2)cc1` [Compound 2h, (E)-Ethyl 4-(3-(3-phenoxyphenyl)acrylamido)benzoate], for which the IC50 on soybean lipoxygenase was 100 µM; in series [1] (setting [7]), 50 µM. In addition, the “RM (±S.D.)” value in series [4] was found to be 0.399 ± 0.045. Further, the “AAPH % (% inhibition of lipid peroxidation)” value in series [2] is 64%.

For `Cc1cc(=O)oc2cc(OC(=O)/C=C/c3ccc(OCc4ccc(Br)cc4)cc3)ccc12` [Compound 3b, (E)-4-Methyl-2-oxo-2H-chromen-7-yl-3-(4-((4-bromobenzyl)oxy)phenyl)acrylate], the half-maximal inhibitory concentration (IC50) on soybean lipoxygenase was 50 µM; in series [1] (setting [7]), 5 µM. In series [4], the “RM (±S.D.)” value is −0.602 ± 0.01. For the same compound, the “AAPH % (% inhibition of lipid peroxidation)” value in series [2] was 90%.

For `CC(=O)Nc1ccc(OC(=O)/C=C/c2cccs2)cc1` [Compound 4a, (E)-4-Acetamidophenyl 3-(thiophen-2-yl)acrylate], the inhibition at 100 µM on soybean lipoxygenase is 16%. The “IC50 μM LOX Inh.” value on soybean lipoxygenase (setting [6]) is “low or no activity”. The “RM (±S.D.)” value in series [4] is on record as −0.826 ± 0.05. The “IC50 μM Trypsin Inh.” value in series [1] (setting [7]) is given as “low or no activity”. Further, the “AAPH % (% inhibition of lipid peroxidation)” value in series [2] came out at 95%.

Consider `O=c1ccc2ccc(O)cc2o1` [Compound 7-HC, 7-hydroxycoumarin, reference compound], for which the IC50 in series [1] (setting [7]) was determined as 100 µM. Further, the “AAPH % (% inhibition of lipid peroxidation)” value in series [2] amounted to 92%.

Regarding `O=c1ccc2ccccc2o1` [Coumarin, reference compound], the inhibition at 100 µM in series [1] was found to be 13%.

Regarding `Cc1cc(=O)oc2cc(O)ccc12` [Hymechromone, 4-methyl-7-hydroxycoumarin, reference compound], the inhibition at 100 µM in series [1] was determined as 60%. The “AAPH % (% inhibition of lipid peroxidation)” value in series [2] stood at 93%.

Consider `Cc1c(C)c2c(c(C)c1O)CCC(C)(C(=O)O)O2` (stereo not shown) [Trolox, reference compound], for which the “AAPH % (% inhibition of lipid peroxidation)” value in series [2] is 63%.

On to `Nc1cccc(O)c1` [m-AP, m-aminophenol, reference compound], for which the “% Trypsin Inh.” value in series [1] turned out to be 90%. In addition, the “AAPH % (% inhibition of lipid peroxidation)” value in series [2] came to 95%.

In the case of `Nc1ccc(O)cc1` [p-AP, p-aminophenol, reference compound], the “% Trypsin Inh.” value in series [1] came to 87%. Further, the “AAPH % (% inhibition of lipid peroxidation)” value in series [2] was 99%.

The values above are taken from article PMC6271731, “Multitarget Molecular Hybrids of Cinnamic Acids” (Molecules, 2014).
